Results from US5804577A, “Cephalosporin derivatives” (Hoffmann-La Roche Inc., priority 1995, dated 1998).
≈ marks a conversion by molar mass, not a printed value. Counter-ions that a name gives are not always drawn. Like-named read-outs stand apart in the source and are kept apart here.

Assays:
Test in all cases: MIC by agar dilution method in Mueller Hinton agar
Format in all cases: cell-based
[1] = system: C. freundii 902; details: Citrobacter freundii
Description: (§1) In vitro activity was determined by minimum inhibitory concentration in a microorganism spectrum by the agar dilution method in Mueller Hinton agar.

[2] = system: S. aureus 6538; details: Staphylococcus aureus
Description: as §1

[3] = system: P. mirabilis 2117; details: Proteus mirabilis
Description: as §1

[4] = system: Acinetobacter sp. 51-156; details: SP.51156
Description: as §1

[5] = system: M. catarrhalis RA21; details: Moraxella catarrhalis
Description: as §1

[6] = system: C. difficile ZH1; details: Clostridioides difficile
Description: as §1

[7] = system: E. coli 25922; details: Escherichia coli
Description: as §1

[8] = system: H. influenzae 1; details: Haemophilus influenzae
Description: as §1

[9] = system: X. maltophilia 1AC739; details: Stenotrophomonas maltophilia
Description: as §1

[10] = system: S. aureus 734 MRSA; details: Staphylococcus aureus
Description: as §1

[11] = system: E. cloacae 908SSi; details: Enterobacter cloacae
Description: as §1

[12] = system: S. agalactiae QK44; details: Streptococcus agalactiae
Description: as §1

[13] = system: L. monocytogenes BK23; details: Listeria monocytogenes
Description: as §1

[14] = system: P. aeruginosa 27853; details: Pseudomonas aeruginosa
Description: as §1

[15] = system: B. fragilis ATCC25285; details: Bacteroides fragilis
Description: as §1

[16] = system: P. vulgaris 1028; details: Proteus vulgaris
Description: as §1

[17] = system: E. cloacae 908R; details: Enterobacter cloacae
Description: as §1

[18] = system: K. pneumoniae 418; details: Klebsiella pneumoniae
Description: as §1

[19] = system: S. marscescens 69438
Description: as §1

[20] = system: S. viridans group 016; details: Streptococcus viridans, GROUP016
Description: as §1

[21] = system: E. faecalis 6; details: Enterococcus faecalis
Description: as §1

[22] = system: C. freundii 43; details: Citrobacter freundii
Description: as §1

[23] = system: P. asaccharolyticus 29743; details: Peptoniphilus asaccharolyticus
Description: as §1

[24] = system: M. morganii 6H-137; details: Morganella morganii, 6H137
Description: as §1

[25] = K. pneumoniae 418, read-out: MIC
[26] = Acinetobacter sp. 51-156, read-out: MIC
[27] = X. maltophilia 1AC739, read-out: MIC
[28] = P. mirabilis 2117, read-out: MIC
[29] = C. difficile ZH1, read-out: MIC
[30] = P. vulgaris 1028, read-out: MIC
[31] = P. aeruginosa 27853, read-out: MIC
[32] = E. cloacae 908SSi, read-out: MIC
[33] = L. monocytogenes BK23, read-out: MIC

| Compound | MIC [1]; 902 | MIC [2]; 6538 | MIC ([4]; Acinetobacter) | MIC ([5]; RA21) | MIC [7]; 25922 | MIC ([9]; 1AC739) | MIC ([10]; MRSA) | MIC ([11]; 908SSI) | MIC [12] | MIC ([13]; BK23) | MIC [14]; 27853 | MIC ([15]; ATCC25285) | MIC [16]; 1028 | MIC ([17]; 908R) | MIC [19] | MIC [20] | MIC [22]; 43 | MIC [18]; 418 | MIC [21]; 6 | MIC ([22]; C. freundii 43, read-out: MIC) | further results |
| --- | --- | --- | --- | --- | --- | --- | --- | --- | --- | --- | --- | --- | --- | --- | --- | --- | --- | --- | --- | --- | --- |
| Nc1nc(/C(=N/O)C(=O)N[C@@H]2C(=O)N3C(C(=O)O)=C(/C=C4\CCN(c5cccc([N+](=O)[O-])c5)C4=O)CS[C@H]23)cs1 [B] | 0.12 µg/mL (≈ 0.205 µM) | 0.25 µg/mL (≈ 0.427 µM) | 16 µg/mL (≈ 27.3 µM) | > 16 µg/mL | 0.12 µg/mL (≈ 0.205 µM) | > 32 µg/mL | 4 µg/mL (≈ 6.83 µM) | 0.25 µg/mL (≈ 0.427 µM) | 0.5 µg/mL (≈ 0.854 µM) | 4 µg/mL (≈ 6.83 µM) | 16 µg/mL (≈ 27.3 µM) | 2 µg/mL (≈ 3.42 µM) | 16 µg/mL (≈ 27.3 µM) | 2 µg/mL (≈ 3.42 µM) | 1 µg/mL (≈ 1.71 µM) | 1 µg/mL (≈ 1.71 µM) | 1 µg/mL (≈ 1.71 µM) | – | – | – | MIC [3]; 2117: 0.12 µg/mL (≈ 0.205 µM); MIC ([6]; ZH1): 16 µg/mL (≈ 27.3 µM); MIC [8]: 0.5 µg/mL (≈ 0.854 µM); MIC [18, 25]: 0.25 µg/mL (≈ 0.427 µM); MIC ([21]; E. faecalis 6, read-out: MIC): 0.25 µg/mL (≈ 0.427 µM) |
| Nc1nc(/C(=N/O)C(=O)N[C@@H]2C(=O)N3C(C(=O)O)=C(/C=C4\CCN(c5ccc(O)c(F)c5)C4=O)CS[C@H]23)cs1 [C, (6R,7R)-7-[(Z)-2-(2-Amino-thiazol-4-yl)-2-(hydroxyimino-acetylamino]-3-[(E)-1-(3-fluoro-4-hydroxy-phenyl)-2-oxo-pyrrolidin-3-ylidenemethyl]-8-oxo-5-thia-1-azabicyclo[4.2.0]oct-2-ene-2-carboxylic acid trifluoroacetate] | 0.12 µg/mL | 0.5 µg/mL | – | – | 0.12 µg/mL | – | 4 µg/mL | 0.5 µg/mL | 0.06 µg/mL | 1 µg/mL | 4 µg/mL | – | 8 µg/mL | – | 1 µg/mL | 0.12 µg/mL | – | 0.12 µg/mL | 1 µg/mL | 4 µg/mL | MIC [4, 26]: 32 µg/mL; MIC [9, 27]: > 32 µg/mL; MIC ([17]; E. cloacae 908R, read-out: MIC): 32 µg/mL |
| Nc1ccc(CN2CC/C(=C\C3=C(C(=O)O)N4C(=O)[C@@H](NC(=O)/C(=N\O)c5csc(N)n5)[C@H]4SC3)C2=O)cc1 [D, (6R,7R)-7-[(Z)-2-(2-Amino-thiazol-4-yl)-2-(hydroxyimino-acetylamino]-3-[(E)-1-(4-aminobenzyl)-2-oxo-pyrrolidin-3-ylidenemethyl]-8-oxo-5-thia-1-azabicyclo[4.2.0-]oct-2-ene-2-carboxylic acid trifluoroacetate] | – | 1 µg/mL | 32 µg/mL | 4 µg/mL | – | > 32 µg/mL | 8 µg/mL | 0.5 µg/mL | 0.25 µg/mL | 4 µg/mL | > 32 µg/mL | 8 µg/mL | > 32 µg/mL | > 32 µg/mL | 1 µg/mL | 0.5 µg/mL | 8 µg/mL | 0.25 µg/mL | 1 µg/mL | – | MIC ([1]; C. freundii 902, read-out: MIC): 0.25 µg/mL; MIC [3, 28]: 0.12 µg/mL; MIC [6, 29]: 16 µg/mL; MIC ([7]; E. coli 25922, read-out: MIC): 0.25 µg/mL; MIC [23]: 1 µg/mL; MIC ([24]; M. morganii 6H-137, read-out: MIC): 0.12 µg/mL |
| Nc1nc(/C(=N/O)C(=O)N[C@@H]2C(=O)N3C(C(=O)O)=C(/C=C4\CCN(Cc5cccc(O)c5)C4=O)CS[C@H]23)cs1 [E, (6R,7R)-7-[(Z)-2-(2-Amino-thiazol-4-yl)-2-(hydroxyimino-acetylamino]-3-[(E)-1-(3-hydroxybenzyl)-2-oxo-pyrrolidin-3-ylidenemethyl]-8-oxo-5-thia-1-azabicyclo[4.2.0]oct-2-ene-2-carboxylic acid trifluoroacetate] | 0.25 µg/mL | – | 32 µg/mL | 2 µg/mL | – | > 32 µg/mL | – | 0.5 µg/mL | 0.12 µg/mL | 2 µg/mL | 8 µg/mL | 8 µg/mL | – | – | 0.5 µg/mL | 0.5 µg/mL | – | 0.25 µg/mL | 0.5 µg/mL | 4 µg/mL | MIC ([2]; S. aureus 6538, read-out: MIC): 0.5 µg/mL; MIC [6, 29]: 4 µg/mL; MIC ([10]; S. aureus 734 MRSA, read-out: MIC): 16 µg/mL; MIC [16, 30]: 16 µg/mL; MIC ([17]; E. cloacae 908R, read-out: MIC): 8 µg/mL |
| Nc1nc(/C(=N/O)C(=O)N[C@@H]2C(=O)N3C(C(=O)O)=C(/C=C4\CCN(c5nncs5)C4=O)CS[C@H]23)cs1 [F, (6R,7R)-7-[(Z)-2-(2-Amino-thiazol-4-yl)-2-hydroxyimino-acetylamino]-8-oxo-3-[(E)-2-oxo-1-(1,3,4-thiadiazol-2-yl)-pyrrolidin-3-ylidenemethyl]-5-thia-1-aza-bicyclo[4.2.0]oct-2-ene-2-carboxylic acid trifluoracetate (1:1)] | 0.12 µg/mL (≈ 0.219 µM) | 1 µg/mL (≈ 1.82 µM) | > 32 µg/mL | > 16 µg/mL | 0.12 µg/mL (≈ 0.219 µM) | > 32 µg/mL | 16 µg/mL (≈ 29.2 µM) | 1 µg/mL (≈ 1.82 µM) | 0.25 µg/mL (≈ 0.456 µM) | 4 µg/mL (≈ 7.29 µM) | – | – | > 32 µg/mL | > 32 µg/mL | 32 µg/mL (≈ 58.3 µM) | 0.5 µg/mL (≈ 0.911 µM) | – | 0.25 µg/mL (≈ 0.456 µM) | 1 µg/mL (≈ 1.82 µM) | 8 µg/mL (≈ 14.6 µM) | MIC [3, 28]: 0.25 µg/mL (≈ 0.456 µM); MIC [14, 31]: > 32 µg/mL; MIC [24]: 0.5 µg/mL (≈ 0.911 µM) |
| Nc1nc(/C(=N/O)C(=O)N[C@@H]2C(=O)N3C(C(=O)O)=C(/C=C4\CCN(C5CCNCC5)C4=O)CS[C@H]23)cs1 [G, (6R,7R)-7-[(Z)-2-(2-Amino-thiazol-4-yl)-2-hydroxyimino-acetylamino]-8-oxo-3-[(E)-2-oxo-1-piperidin-4-yl-pyrrolidin-3-ylidenemethyl]-5-thia-1-aza-bicyclo[4.2.0-]oct-2-ene-2-carboxylic acid hydrochloride (1:2)] | – | 1 µg/mL | 32 µg/mL | 2 µg/mL | – | > 32 µg/mL | 8 µg/mL | – | 0.25 µg/mL | – | – | 16 µg/mL | > 32 µg/mL | – | 1 µg/mL | – | 2 µg/mL | – | 1 µg/mL | – | MIC ([6]; ZH1): 16 µg/mL; MIC [23]: 1 µg/mL; MIC [11, 32]: 0.25 µg/mL; MIC [13, 33]: 4 µg/mL; MIC [14, 31]: 8 µg/mL; MIC ([17]; E. cloacae 908R, read-out: MIC): 4 µg/mL |
| Nc1nc(/C(=N/O)C(=O)N[C@@H]2C(=O)N3C(C(=O)O)=C(/C=C4\CCN(Cc5nc6ccccc6[nH]5)C4=O)CS[C@H]23)cs1 [H, (6R,7R)-7-[(Z)-2-(2-Amino-thiazol-4-yl)-2-hydroxyimino-acetylamino]-3-[(E)-1-(1H-benzimidazol-2-ylmethyl)-2-oxo-pyrrolidin-3-ylidenemethyl]-8-oxo-5-thia-1-aza-bicyclo[4.2.0]oct-2-ene-2-carboxylic acid trifluoracetate (1:1:1)] | – | 1 µg/mL (≈ 1.68 µM) | > 32 µg/mL | 4 µg/mL (≈ 6.73 µM) | 0.12 µg/mL (≈ 0.202 µM) | > 32 µg/mL | 8 µg/mL (≈ 13.5 µM) | 0.5 µg/mL (≈ 0.841 µM) | 0.25 µg/mL (≈ 0.42 µM) | 4 µg/mL (≈ 6.73 µM) | – | – | 16 µg/mL (≈ 26.9 µM) | 4 µg/mL (≈ 6.73 µM) | 1 µg/mL (≈ 1.68 µM) | 0.5 µg/mL (≈ 0.841 µM) | 2 µg/mL (≈ 3.36 µM) | – | 2 µg/mL (≈ 3.36 µM) | – | MIC ([1]; C. freundii 902, read-out: MIC): 0.12 µg/mL (≈ 0.202 µM); MIC [3, 28]: 0.25 µg/mL (≈ 0.42 µM); MIC ([6]; ZH1): 16 µg/mL (≈ 26.9 µM); MIC [23]: 1 µg/mL (≈ 1.68 µM); MIC [14, 31]: > 32 µg/mL; MIC ([15]; B. fragilis ATCC25285, read-out: MIC): 8 µg/mL (≈ 13.5 µM); MIC [18, 25]: 0.12 µg/mL (≈ 0.202 µM); MIC [24]: 0.25 µg/mL (≈ 0.42 µM) |
| CO/N=C(\C(=O)N[C@@H]1C(=O)N2C(C(=O)O)=C(CSc3nc(=O)c(=O)[nH]n3C)CS[C@H]12)c1csc(N)n1 [II, reference compound] | – | 4 µg/mL (≈ 7.21 µM) | – | – | – | – | > 32 µg/mL | – | – | – | – | – | – | > 32 µg/mL | – | – | – | – | – | 32 µg/mL (≈ 57.7 µM) | MIC ([1]; C. freundii 902, read-out: MIC): 0.25 µg/mL (≈ 0.451 µM); MIC [4, 26]: 32 µg/mL (≈ 57.7 µM); MIC ([5]; M. catarrhalis RA21, read-out: MIC): 1 µg/mL (≈ 1.8 µM); MIC [9, 27]: > 32 µg/mL; MIC [11, 32]: 0.25 µg/mL (≈ 0.451 µM); MIC [13, 33]: > 16 µg/mL; MIC [14, 31]: 16 µg/mL (≈ 28.9 µM); MIC [16, 30]: 0.12 µg/mL (≈ 0.216 µM); MIC ([19]; S. marscescens 69438, read-out: MIC): 0.25 µg/mL (≈ 0.451 µM); MIC ([20]; S. viridans group 016, read-out: MIC): 0.25 µg/mL (≈ 0.451 µM); MIC ([21]; E. faecalis 6, read-out: MIC): > 32 µg/mL |
